Laboratory results: patent US10051861B2, “N-arylamidine-substituted trifluoroethyl sulfide derivatives as acaricides and insecticides” (BAYER CROPSCIENCE AG, priority 2011, dated 2018)
Read-outs that look alike come from different tables or passages of the source.

What was measured:
[1] = logP by HPLC on reversed-phase columns (C 18), EEC Directive 79/831 Annex V.A8; assay type: physicochemical; settings: reversed-phase C18 HPLC column
Description: Calibration is carried out using unbranched alkan-2-ones (having from 3 to 16 carbon atoms) with known log P values (the log P values are determined by the retention times using linear interpolation between two successive alkanones).

[2] = system: greenhouse red spider mite (Tetranychus urticae); assay: Tetranychus urticae spray test, OP-resistant (TETRUR), bean leaf disks; assay type: in vivo; settings: Tetranychus urticae, foliar, 144 h, read-out: efficacy (spider mites killed)
Description: After 6 days, the effect in % is determined.

[3] = system: larvae of the mustard beetle (Phaedon cochleariae); assay: Phaedon cochleariae spray test (PHAECO); settings: Phaedon cochleariae, 168 h, read-out: effect (beetle larvae killed)
[4] = system: cattle ticks (Boophilus microplus); assay: Boophilus microplus injection test (BOOPMI Inj); assay type: in vivo; settings: Rhipicephalus microplus, 168 h, read-out: efficacy (laying of fertile eggs)
Description: Solvent: dimethyl sulfoxide
1 μl of the active compound solution is injected into the abdomen of 5 engorged adult female cattle ticks (Boophilus microplus). The animals are transferred into dishes and kept in a climate-controlled room.
The activity is assessed after 7 days by laying of fertile eggs. Eggs whose fertility is not visible from the outside are stored in a climate-controlled cabinet until the larvae hatch after about 42 days. An efficacy of 100% means that none of the ticks has laid any fertile eggs; 0% means that all eggs are fertile.

[5] = pH 2.7, [a] LC-MS, acidic range, pH 2.7, 0.1% aqueous formic acid/acetonitrile, read-out: logP(HCOOH)
[6] = application rate 500 g/ha, after 6 days
[7] = application rate 20 μg/animal, injection, after 7 days

Row | Structure (SMILES) | pest or weed control at 500 g/ha [2, 6] | pest or weed control at 500 g/ha [3] | pest or weed control at 0.02 mg [4, 7] | also measured
1 | N/C(=N/c1ccc(Cl)c(SCC(F)(F)F)c1)C(F)(F)F [Ia-204, N′-{4-Chloro-3-[(2,2,2-trifluoroethyl)sulfanyl]phenyl}-2,2,2-trifluoroethanimidamide] | 90% | 83% |  | chromatographic logP [1, 5]: 3.1; chromatographic logP ([1]; pH 7.8, [b] LC-MS, neutral range, pH 7.8, 0.001 molar aqueous ammonium bicarbonate/acetonitrile, read-out: logP(neutral)): 3.1
2 | N/C(=N/c1cc([S+]([O-])CC(F)(F)F)c(Br)cc1Br)C(F)(F)F (stereo not drawn) [Ib-18] | 80% | 83% | 100% | 
3 | Cc1cc(F)c(/N=C(\N)C(F)(F)C(F)(F)Cl)cc1[S+]([O-])CC(F)(F)F (stereo not drawn) [Ib-38] | 100% |  | 100% | 
4 | Cc1cc(F)c(/N=C(/c2cccnc2)N(C)C)cc1[S+]([O-])CC(F)(F)F (stereo not drawn) [Ib-47] | 100% |  | 100% | 
5 | N/C(=N/c1cc(SCC(F)(F)F)c(Br)cc1Cl)C(F)(F)F [Ia-121] | 100% | 100% |  | 
6 | Cc1cc(F)c(/N=C(\NC2CC2)C2CC2)cc1[S+]([O-])CC(F)(F)F (stereo not drawn) [Ib-39] | 100% | 100% |  | 
7 | Cc1cc(F)c(/N=C2\CCCN2c2ccc(C(F)(F)F)cc2)cc1SCC(F)(F)F [Ia-191] | 100% | 100% |  | 
8 | Cc1cc(F)c(/N=C(/NCc2ccccc2)C(F)(F)F)cc1SCC(F)(F)F [Ia-171] | 90% | 83% |  | 
9 | Cc1cc(F)c(/N=C(\N)C2(C#N)CC2)cc1SCC(F)(F)F [Ia-118] | 90% | 100% | 100% | 
10 | Cc1cc(F)c(/N=C(\N)C2(F)CC2)cc1SCC(F)(F)F [Ia-27, 1-Fluoro-N′-{2-fluoro-4-methyl-5-[(2,2,2-trifluoroethyl)sulfanyl]phenyl}cyclopropanecarboximidamide] |  | 100% |  | chromatographic logP [1, 5]: 1.2; pest or weed control at 0.02 mg [4]: 100%; pest or weed control at 500 g/ha [2]: 100%
11 | CN(C)/C(=N\c1cc(SCC(F)(F)F)c(Cl)cc1Cl)c1ccccc1Cl [Ia-207] | 100% | 83% |  | 
12 | Cc1cc(Cl)c(/N=C(/N)C(F)(F)F)cc1[S+]([O-])CC(F)(F)F (stereo not drawn) [Ib-68] | 100% | 100% | 100% | 
13 | Cc1cc(F)c(/N=C(\N)C(F)F)cc1[S+]([O-])CC(F)(F)F (stereo not drawn) [Ib-43] | 100% | 100% |  | 
14 | N/C(=N\c1cc(SCC(F)(F)F)c(Cl)cc1Cl)C1CC1 [Ia-139] | 100% | 100% |  | 
15 | Cc1cc(F)c(/N=C(\N)C(F)(F)Cl)cc1SCC(F)(F)F [Ia-115] | 100% | 100% | 100% | 
16 | CN/C(=N/c1cc([S+]([O-])CC(F)(F)F)c(Br)cc1Br)C(F)(F)F (stereo not drawn) [Ib-24] | 100% |  | 80% | 
17 | Cc1cc(F)c(/N=C(\N)C(Cl)(Cl)Cl)cc1[S+]([O-])CC(F)(F)F (stereo not drawn) [Ib-40] | 100% |  | 100% | 
18 | Cc1cc(F)c(/N=C2\CCCN2C)cc1SCC(F)(F)F [Ia-39] | 100% |  | 100% | 
19 | Cc1cc(F)c(/N=C(/c2ccc(Cl)cc2)N2CCC(F)(F)CC2)cc1[S+]([O-])CC(F)(F)F (stereo not drawn) [Ib-143] | 90% | 83% |  | 
20 | Cc1cc(Cl)c(/N=C(\N)C2(Cl)CC2)cc1SCC(F)(F)F [Ia-36] | 100% | 100% |  | 
21 | CN/C(=N\c1cc([S+]([O-])CC(F)(F)F)c(C)cc1F)c1ccccn1 (stereo not drawn) [Ib-58] | 100% |  | 100% | 
22 | Cc1cc(F)c(/N=C(\N)C2CC2F)cc1SCC(F)(F)F (stereo not drawn) [Ia-33] | 100% | 83% |  | 
23 | Cc1cc(F)c(/N=C(\c2cccc(F)c2)N(C)C)cc1SCC(F)(F)F [Ia-120] | 100% |  | 100% | 
